Molecules are shown by their SMILES.

The conditions of data set [1]: cited from earlier work.
Data set [2] in a line: Solubility of cromolyn sodium in ethanol and PG/EtOH mixtures. Type of data set: physicochemical. Particulars: Table 4 PG/EtOH mixtures, 0.25% Brij30 and 0.25% lecithin. From the text:
FIG. 7 is a graph illustrating the solubility of cromolyn sodium in various propylene glycol/ethanol (PG/EtOH) mixtures, with 0.25% Brij30 and 0.25% lecithin. […] When formulated with 0.25% w/v Brij 30 and 0.25% lecithin, cromolyn sodium suspension formulations remained visually stable over a period of one to two weeks. There was no significant change in the particle size distribution of the suspended particles up to three days of standing at ambient condition. The addition of PG was primarily to prevent capillary clogging. The amount of PG required in the formulation was dependent on the API concentration.

In the case of `O=C(O)c1cc(=O)c2c(OCC(O)COc3cccc4oc(C(=O)O)cc(=O)c34)cccc2o1` [cromolyn sodium], the solubility in ethanol entry in data set [1] is “virtually insoluble”. Moreover, in data set [2], the “solubility in PG/EtOH mixtures” value is reported as “almost insoluble”.

The values above are taken from patent US20040223918A1, “Aerosolization of cromolyn sodium using a capillary aerosol generator” (Chrysalis Technologies Incorporated, priority 2003, published 2004).
